Assays:
[1] = target: T1, (N66A)PD-1/PD-L1 complex (Homo sapiens, UniProt Q9NZQ7); experiment: w-AIDA-NMR on (N66A)PD-1/PD-L1 complex; type: binding
T1 construct: made in house; host or cells: E. coli BL21 (DE3)

[2] = target: T2, PD-1/PD-L1 complex (Homo sapiens, UniProt Q9NZQ7); details: ref [59]; cited from earlier work
T2 construct: made in house; host or cells: E. coli BL21 (DE3)

[3] = test system: effector T cells; details: T cells attenuated by soluble and membrane-bound PD-L1; ref [59]; cited from earlier work
[4] = target: T3, MdmX (Homo sapiens, UniProt O15151); experiment: Fluorescence polarization competition assay (displacement of P2 peptide), MdmX; details: read-out: Ki towards MdmX; FP assay
T3 sequence (O15151 18-111): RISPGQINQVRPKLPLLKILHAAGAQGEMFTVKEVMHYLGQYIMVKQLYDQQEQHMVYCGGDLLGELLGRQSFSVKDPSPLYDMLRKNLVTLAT

T1 sequence (Q9NZQ7 18-134, stated change not applied, one chain of several): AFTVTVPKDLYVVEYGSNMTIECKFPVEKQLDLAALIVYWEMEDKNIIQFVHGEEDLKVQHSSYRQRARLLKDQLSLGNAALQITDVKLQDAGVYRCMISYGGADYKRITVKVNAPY
T2 sequence (Q9NZQ7 18-134, one chain of several): as the sequence (Q9NZQ7 18-134, stated change not applied, one chain of several) above

Row | Ki [4] | Structure (SMILES) | Recovery of PD-1 signals in 1D 1H-NMR spectra ([1]; (N66A)PD-1/PD-L1 complex, molar ratio 1:1) | Dissociation of (N66A)PD-1/PD-L1 complex (recovery of 2D HMQC signals) ([1]; equimolar amount of compound) | Dissociation of human PD-1/PD-L1 complex in vitro [2] | Activation of effector T cells [3]
1 | – | Cc1c(COc2cc(OCc3cccc(C#N)c3)c(CN3C[C@H](O)C[C@@H]3C(=O)O)cc2Cl)cccc1-c1ccc2c(c1)OCCO2 [BMS-1166] | full recovery of the PD-1 signals | full recovery of 2D HMQC spectrum | efficiently dissociates the human PD-1/PD-L1 complex in vitro | activates the effector T cells
2 | 27 µM | CC(C)(C)NC(=O)C(c1c(C(=O)O)[nH]c2cc(Cl)ccc12)N(C=O)Cc1cc(F)cc(F)c1F (centres unmarked) [compound 4] | – | – | – | –

Reference: paper PMC7412237, “Competition NMR for Detection of Hit/Lead Inhibitors of Protein–Protein Interactions” (Molecules, 2020)
